One assay has as its target Coagulation factor X (Homo sapiens, UniProt P00742). The assay can be described thus: In vitro inhibitory activity against factor Xa.
In a further assay the target is Prothrombin (Homo sapiens, UniProt P00734). The assay can be described thus: In vitro inhibitory activity against serine protease thrombin.

The IC50 is the concentration that inhibits the measured activity by half.

Coagulation factor X, sequence (P00742 41-179 limits assumed): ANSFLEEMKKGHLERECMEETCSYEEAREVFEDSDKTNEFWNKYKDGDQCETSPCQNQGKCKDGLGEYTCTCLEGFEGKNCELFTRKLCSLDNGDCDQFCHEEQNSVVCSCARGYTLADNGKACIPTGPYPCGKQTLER
Coagulation factor X, sequence (P00742 235-488 limits assumed): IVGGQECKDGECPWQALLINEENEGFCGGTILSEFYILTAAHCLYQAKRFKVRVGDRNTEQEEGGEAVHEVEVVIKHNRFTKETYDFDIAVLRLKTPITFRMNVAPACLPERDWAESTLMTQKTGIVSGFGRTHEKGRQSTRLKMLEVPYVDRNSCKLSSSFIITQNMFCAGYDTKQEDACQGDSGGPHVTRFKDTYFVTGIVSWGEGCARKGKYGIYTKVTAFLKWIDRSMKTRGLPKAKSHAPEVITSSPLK

Consider `N=C(N)NCCC[C@H](NC(=O)CN1CC(=O)N[C@H](CCCNC(=N)N)C1=O)C(=O)c1nccs1`, for which the IC50 against Coagulation factor X is 21 nM; at Prothrombin, 200000 nM.

Take `CCOC(=O)C[C@H]1C(=O)N(CC(=O)N[C@@H](CCCN=C(N)N)C(=O)c2nccs2)CCN1S(=O)(=O)Cc1ccccc1`: the IC50 was 32 nM on Coagulation factor X and 4000 nM on Prothrombin.

Take `N=C(N)NCCC[C@H](NC(=O)CN1CCN(S(=O)(=O)Cc2ccccc2)[C@@H](CCCNC(=N)N)C1=O)C(=O)c1nccs1`: the figures for the IC50 on Coagulation factor X and on Prothrombin were 3 nM and 12000 nM, respectively.

For `N=C(N)NCCCC(NC(=O)CNC(=O)[C@@H](Cc1ccccc1)NS(=O)(=O)Cc1ccccc1)C(=O)c1nccs1` (stereo not given in full), half-maximal inhibition at Coagulation factor X (IC50) required 2 nM.

For `CS(=O)(=O)N1CCN(CC(=O)N[C@@H](CCCNC(=N)N)C(=O)c2nccs2)C(=O)[C@@H]1Cc1ccccc1`, the IC50 is 459 nM against Coagulation factor X and 642 nM at Prothrombin.

As for `N=C(N)NCCC[C@H](NC(=O)CN1CCN(S(=O)(=O)Cc2ccccc2)[C@H](CO)C1=O)C(=O)c1nccs1`, the IC50 against Coagulation factor X is 6 nM; on Prothrombin, 2000 nM.

As for `N=C(N)NCCC[C@H](NC(=O)CN1CCN[C@@H](CCCNC(=N)N)C1=O)C(=O)c1nccs1`, the IC50 at Coagulation factor X was found to be 20 nM; at Prothrombin, 12000 nM.

Regarding `N=C(N)NCCC[C@H](NC(=O)CN1CCN[C@@H](Cc2ccccc2)C1=O)C(=O)c1nccs1`, the half-maximal inhibitory concentration (IC50) at Coagulation factor X was determined as 888 nM; on Prothrombin it was 2000 nM.

As to `N=C(N)NCCC[C@H](NC(=O)CN1CCN(S(=O)(=O)Cc2ccccc2)[C@@H](CC(=O)O)C1=O)C(=O)c1nccs1`, the IC50 was 370 nM against Coagulation factor X and 325000 nM against Prothrombin.

Consider `N=C(N)NCCC[C@H](NC(=O)CN1C=CN[C@@H](CCCNC(=N)N)C1=O)C(=O)c1nccs1`, for which the IC50 against Coagulation factor X came out at 307 nM; against Prothrombin, 140000 nM.

The compound `N=C(N)NCCCC(NC(=O)CN1CCN(S(=O)(=O)Cc2ccccc2)CC1=O)C(=O)c1nccs1` (stereo not given) returned an IC50 at Coagulation factor X of 4 nM.

In the case of `COC(=O)C[C@@H]1C(=O)N(CC(=O)N[C@@H](CCCNC(=N)N)C(=O)c2nccs2)CCN1S(=O)(=O)Cc1ccccc1`, the IC50 against Coagulation factor X worked out at 8 nM; on Prothrombin, 5000 nM.

With `COC(=O)C[C@H]1C(=O)N(CC(=O)N[C@@H](CCCNC(=N)N)C(=O)c2nccs2)CCN1S(=O)(=O)Cc1ccccc1`, the IC50 was 85 nM against Coagulation factor X and 1000 nM against Prothrombin.

Turning to `N=C(N)NCCC[C@H](NC(=O)CN1CCN(S(=O)(=O)Cc2ccccc2)[C@H](CC(=O)N2CCCCC2)C1=O)C(=O)c1nccs1`, the IC50 was 37 nM against Coagulation factor X and 8000 nM at Prothrombin.

Consider `N=C(N)NCCC[C@H](NC(=O)CN1CCN(S(=O)(=O)Cc2ccccc2)[C@H](CCC(=O)O)C1=O)C(=O)c1nccs1`, for which the IC50 on Coagulation factor X was determined as 4 nM; on Prothrombin, 5000 nM.

Turning to `N=C(N)NCCC[C@H](NC(=O)CN1CCN[C@H](Cc2ccccc2)C1=O)C(=O)c1nccs1`, the IC50 against Prothrombin came to 22000 nM.

As for `N=C(N)NCCC[C@H](NC(=O)CN1CCN(S(=O)(=O)Cc2ccccc2)[C@@H](CC(=O)N2CCCCC2)C1=O)C(=O)c1nccs1`, the IC50 at Coagulation factor X came to 154 nM; at Prothrombin, 60000 nM.

With `N=C(N)NCCC[C@H](NC(=O)CN1CCN(S(=O)(=O)Cc2ccccc2)[C@@H](Cc2ccccc2)C1=O)C(=O)c1nccs1`, the IC50 on Coagulation factor X came out at 0.9 nM; against Prothrombin, 507 nM.

Consider `CS(=O)(=O)N1CCN(CC(=O)N[C@@H](CCCN=C(N)N)C(=O)c2nccs2)C(=O)[C@H]1Cc1ccccc1`, for which the IC50 on Coagulation factor X came out at 144 nM; on Prothrombin, 2000 nM.

For `N=C(N)NCCC[C@H](NC(=O)CN1CCN(S(=O)(=O)Cc2ccccc2)[C@H](CCCNC(=N)N)C1=O)C(=O)c1nccs1`, the IC50 against Coagulation factor X was 13 nM; on Prothrombin, 3000 nM.

Turning to `N=C(N)NCCC[C@@H](NS(=O)(=O)Cc1ccccc1)C(=O)NC(=O)CN[C@H](CCCNC(=N)N)C(=O)c1nccs1`, the IC50 against Coagulation factor X was found to be 13 nM.

As for `N=C(N)NCCC[C@H](NC(=O)CN1CC(=O)N[C@@H](CCCNC(=N)N)C1=O)C(=O)c1nccs1`, the IC50 at Coagulation factor X worked out at 11 nM; against Prothrombin, 150000 nM.

As for `COC(=O)CC[C@@H]1C(=O)N(CC(=O)N[C@@H](CCCNC(=N)N)C(=O)c2nccs2)CCN1S(=O)(=O)Cc1ccccc1`, the results for the IC50 at Coagulation factor X and on Prothrombin were 1 nM and 2000 nM, respectively.

Take `CCOC(=O)C[C@@H]1C(=O)N(CC(=O)N[C@@H](CCCN=C(N)N)C(=O)c2nccs2)CCN1S(=O)(=O)Cc1ccccc1`: the IC50 against Coagulation factor X worked out at 7 nM; against Prothrombin it was 3000 nM.

On to `N=C(N)NCCC[C@H](NC(=O)CN1CCN(S(=O)(=O)Cc2ccccc2)[C@H](CC(=O)O)C1=O)C(=O)c1nccs1`, for which the IC50 against Coagulation factor X amounted to 31 nM; against Prothrombin, 40000 nM.

`N=C(N)NCCC[C@H](NC(=O)CN1CCN(S(=O)(=O)Cc2ccccc2)[C@H](Cc2ccccc2)C1=O)C(=O)c1nccs1`: the IC50 at Coagulation factor X amounted to 59 nM; against Prothrombin, 2000 nM.

With `N=C(N)NCCC[C@H](NC(=O)CN1CCN(S(=O)(=O)Cc2ccccc2)[C@H](CCC(=O)N2CCCCC2)C1=O)C(=O)c1nccs1`, the IC50 against Coagulation factor X came out at 4 nM; on Prothrombin, 3000 nM.

The record behind these values is ChEMBL document CHEMBL1136599, “Design, synthesis, and structure-activity relationships of substituted piperazinone-based transition state factor Xa inhibitors” (Bioorg Med Chem Lett, 2003).
